Reference: the kinase profiling compilation of Christmann-Franck et al. (2016)
pIC50, pKd: −log10 of the molar value. “And” between values parts separate entries of the source, which are not always exact repeats. Equal entries are not always repeated.

Experiments:
TTK (human) [1] = target: TTK (human) (UniProt P33981); assay: SelectScreen, TR FRET
PLK1 (human) = PLK1 (human) (UniProt P53350); assay: KINOMEscan competition binding; settings: compound 10.0 µM
[2] = test system: EGFR (human), P00533 [752-759 del]; assay: KINOMEscan competition binding; settings: compound 10.0 µM
[3] = test system: EGFR (human), P00533 [P753S; 747-752 del]; assay: KINOMEscan competition binding; settings: compound 10.0 µM
STK33 (human) = STK33 (human) (UniProt Q9BYT3); assay: KINOMEscan competition binding; settings: compound 10.0 µM
[4] = test system: EGFR (human), P00533 [G719S]; assay: KINOMEscan competition binding; settings: compound 10.0 µM
TTK (human) [5] = target: TTK (human) (UniProt P33981); assay: KINOMEscan competition binding; settings: for kinase still bound, per cent of control: compound 10.0 µM
MYLK (human) = MYLK (human) (UniProt Q15746); assay: KINOMEscan competition binding; settings: compound 10.0 µM
PTK2B (human) = PTK2B (human) (UniProt Q14289); assay: KINOMEscan competition binding; settings: compound 10.0 µM
IGF1R (human) = IGF1R (human) (UniProt P08069); assay: KINOMEscan competition binding; settings: compound 10.0 µM
TNK1 (human) = TNK1 (human) (UniProt Q13470); assay: KINOMEscan competition binding; settings: compound 10.0 µM
EGFR (human) = EGFR (human) (UniProt P00533); assay: KINOMEscan competition binding; settings: compound 10.0 µM
[6] = test system: EGFR (human), P00533 [L858R]; assay: KINOMEscan competition binding; settings: compound 10.0 µM
ULK2 (human) = ULK2 (human) (UniProt Q8IYT8); assay: KINOMEscan competition binding; settings: compound 10.0 µM
DAPK2 (human) = DAPK2 (human) (UniProt Q9UIK4); assay: KINOMEscan competition binding; settings: compound 10.0 µM
[7] = test system: EGFR (human), P00533 [L861Q]; assay: KINOMEscan competition binding; settings: compound 10.0 µM
SLK (human) = SLK (human) (UniProt Q9H2G2); assay: KINOMEscan competition binding; settings: compound 10.0 µM
FGFR4 (human) = FGFR4 (human) (UniProt P22455); assay: KINOMEscan competition binding; settings: compound 10.0 µM
FER (human) = FER (human) (UniProt P16591); assay: KINOMEscan competition binding; settings: compound 10.0 µM
INSR (human) = INSR (human) (UniProt P06213); assay: KINOMEscan competition binding; settings: compound 10.0 µM
PTK2 (human) = PTK2 (human) (UniProt Q05397); assay: KINOMEscan competition binding; settings: compound 10.0 µM
PLK3 (human) = PLK3 (human) (UniProt Q9H4B4); assay: KINOMEscan competition binding; settings: compound 10.0 µM
[8] = test system: EGFR (human), P00533 [A750P; 747-749 del]; assay: KINOMEscan competition binding; settings: compound 10.0 µM
ALK (human) = ALK (human) (UniProt Q9UM73); assay: KINOMEscan competition binding; settings: compound 10.0 µM
DAPK3 (human) = DAPK3 (human) (UniProt O43293); assay: KINOMEscan competition binding; settings: compound 10.0 µM
INSRR (human) = INSRR (human) (UniProt P14616); assay: KINOMEscan competition binding; settings: compound 10.0 µM
RPS6KA2 KD2 (human) = RPS6KA2 KD2 (human) (UniProt Q15349); assay: KINOMEscan competition binding; settings: compound 10.0 µM
CAMKK2 (human) = CAMKK2 (human) (UniProt Q96RR4); assay: KINOMEscan competition binding; settings: compound 10.0 µM
GAK (human) = GAK (human) (UniProt O14976); assay: KINOMEscan competition binding; settings: compound 10.0 µM
[9] = test system: EGFR (human), P00533 [747-751 del / S ins]; assay: KINOMEscan competition binding; settings: compound 10.0 µM
[10] = test system: EGFR (human), P00533 [G719C; 746-750 del]; assay: KINOMEscan competition binding; settings: compound 10.0 µM
DCLK1 (human) = DCLK1 (human) (UniProt O15075); assay: KINOMEscan competition binding; settings: compound 10.0 µM
MET (human) = MET (human) (UniProt P08581); assay: KINOMEscan competition binding; settings: compound 10.0 µM
MKNK2 (human) = MKNK2 (human) (UniProt Q9HBH9); assay: KINOMEscan competition binding; settings: compound 10.0 µM
PLK4 (human) = PLK4 (human) (UniProt O00444); assay: KINOMEscan competition binding; settings: compound 10.0 µM

TTK (human), sequence (P33981 whole entry, looked up): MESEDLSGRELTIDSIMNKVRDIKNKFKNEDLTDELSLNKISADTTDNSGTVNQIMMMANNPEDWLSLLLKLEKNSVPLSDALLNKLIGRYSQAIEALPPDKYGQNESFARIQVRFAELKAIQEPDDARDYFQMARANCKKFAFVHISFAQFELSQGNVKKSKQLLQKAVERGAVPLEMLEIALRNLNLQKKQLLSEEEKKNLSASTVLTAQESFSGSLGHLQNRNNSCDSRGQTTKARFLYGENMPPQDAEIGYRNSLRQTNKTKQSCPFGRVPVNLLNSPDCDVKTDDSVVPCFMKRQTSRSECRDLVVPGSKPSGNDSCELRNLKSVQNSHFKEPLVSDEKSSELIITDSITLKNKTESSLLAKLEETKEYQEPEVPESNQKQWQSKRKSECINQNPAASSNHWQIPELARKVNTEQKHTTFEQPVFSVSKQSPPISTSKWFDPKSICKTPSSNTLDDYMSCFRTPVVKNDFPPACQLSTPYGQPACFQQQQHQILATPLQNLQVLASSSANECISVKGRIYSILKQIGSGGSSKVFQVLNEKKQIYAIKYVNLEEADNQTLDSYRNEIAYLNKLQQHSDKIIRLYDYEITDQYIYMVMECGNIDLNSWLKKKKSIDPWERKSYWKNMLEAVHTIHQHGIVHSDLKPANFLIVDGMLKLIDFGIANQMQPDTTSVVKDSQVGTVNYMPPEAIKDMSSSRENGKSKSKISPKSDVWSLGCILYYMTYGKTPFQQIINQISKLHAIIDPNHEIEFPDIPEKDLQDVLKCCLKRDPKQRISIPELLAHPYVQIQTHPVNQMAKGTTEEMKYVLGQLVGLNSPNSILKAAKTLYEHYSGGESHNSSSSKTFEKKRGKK
PTK2B (human), sequence (Q14289 whole entry, looked up): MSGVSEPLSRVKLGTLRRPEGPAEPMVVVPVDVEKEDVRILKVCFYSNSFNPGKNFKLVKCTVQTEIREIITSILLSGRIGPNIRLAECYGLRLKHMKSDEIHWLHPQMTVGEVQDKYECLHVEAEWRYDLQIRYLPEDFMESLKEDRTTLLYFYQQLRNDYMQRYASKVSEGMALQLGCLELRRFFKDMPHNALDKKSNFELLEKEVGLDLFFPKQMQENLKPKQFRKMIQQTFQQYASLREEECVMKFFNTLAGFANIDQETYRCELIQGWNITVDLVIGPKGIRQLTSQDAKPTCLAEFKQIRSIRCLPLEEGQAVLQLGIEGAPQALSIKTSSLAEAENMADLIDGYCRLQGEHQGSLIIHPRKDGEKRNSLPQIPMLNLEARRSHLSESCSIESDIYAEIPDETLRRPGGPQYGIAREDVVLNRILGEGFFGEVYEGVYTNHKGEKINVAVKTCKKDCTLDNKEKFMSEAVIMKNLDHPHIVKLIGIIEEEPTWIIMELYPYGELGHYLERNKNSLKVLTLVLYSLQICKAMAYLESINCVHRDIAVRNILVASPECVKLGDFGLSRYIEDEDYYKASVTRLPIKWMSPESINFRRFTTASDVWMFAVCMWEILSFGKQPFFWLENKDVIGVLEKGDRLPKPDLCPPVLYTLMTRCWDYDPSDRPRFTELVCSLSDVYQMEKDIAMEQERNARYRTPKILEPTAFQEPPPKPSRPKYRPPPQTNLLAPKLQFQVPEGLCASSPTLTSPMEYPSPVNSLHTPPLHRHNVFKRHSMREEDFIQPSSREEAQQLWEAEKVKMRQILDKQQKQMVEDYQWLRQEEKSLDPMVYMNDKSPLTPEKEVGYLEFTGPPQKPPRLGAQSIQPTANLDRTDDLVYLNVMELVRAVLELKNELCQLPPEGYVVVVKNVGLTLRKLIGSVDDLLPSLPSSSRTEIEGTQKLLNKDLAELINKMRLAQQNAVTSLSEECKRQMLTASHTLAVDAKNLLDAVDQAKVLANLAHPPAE
PTK2 (human), sequence (Q05397 whole entry, looked up): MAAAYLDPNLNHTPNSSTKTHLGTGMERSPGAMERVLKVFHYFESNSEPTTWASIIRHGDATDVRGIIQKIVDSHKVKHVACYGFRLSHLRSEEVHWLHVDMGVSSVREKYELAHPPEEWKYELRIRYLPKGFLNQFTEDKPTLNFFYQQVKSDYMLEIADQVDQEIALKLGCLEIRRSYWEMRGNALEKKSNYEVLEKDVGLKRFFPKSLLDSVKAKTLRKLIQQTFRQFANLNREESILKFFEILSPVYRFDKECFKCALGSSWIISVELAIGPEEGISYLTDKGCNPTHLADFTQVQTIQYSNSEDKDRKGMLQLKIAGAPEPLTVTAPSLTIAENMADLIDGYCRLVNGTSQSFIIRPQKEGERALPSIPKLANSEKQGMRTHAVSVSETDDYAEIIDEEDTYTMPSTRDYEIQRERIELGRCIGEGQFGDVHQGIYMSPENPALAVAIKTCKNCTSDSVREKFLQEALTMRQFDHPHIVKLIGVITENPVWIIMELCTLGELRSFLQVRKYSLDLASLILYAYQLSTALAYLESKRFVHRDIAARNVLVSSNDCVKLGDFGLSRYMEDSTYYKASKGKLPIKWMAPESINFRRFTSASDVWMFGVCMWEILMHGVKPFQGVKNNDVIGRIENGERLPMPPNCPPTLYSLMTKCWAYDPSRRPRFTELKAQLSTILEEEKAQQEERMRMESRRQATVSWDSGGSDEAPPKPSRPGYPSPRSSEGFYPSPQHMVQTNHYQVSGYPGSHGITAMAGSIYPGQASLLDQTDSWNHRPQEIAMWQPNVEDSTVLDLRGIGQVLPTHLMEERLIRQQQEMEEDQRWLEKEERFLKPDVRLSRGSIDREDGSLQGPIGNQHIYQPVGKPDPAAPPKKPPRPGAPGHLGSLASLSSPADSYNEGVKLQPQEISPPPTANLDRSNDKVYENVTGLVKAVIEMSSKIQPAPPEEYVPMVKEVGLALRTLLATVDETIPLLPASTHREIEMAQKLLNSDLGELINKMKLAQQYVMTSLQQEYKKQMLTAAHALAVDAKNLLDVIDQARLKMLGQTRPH
PLK3 (human), sequence (Q9H4B4 whole entry, looked up): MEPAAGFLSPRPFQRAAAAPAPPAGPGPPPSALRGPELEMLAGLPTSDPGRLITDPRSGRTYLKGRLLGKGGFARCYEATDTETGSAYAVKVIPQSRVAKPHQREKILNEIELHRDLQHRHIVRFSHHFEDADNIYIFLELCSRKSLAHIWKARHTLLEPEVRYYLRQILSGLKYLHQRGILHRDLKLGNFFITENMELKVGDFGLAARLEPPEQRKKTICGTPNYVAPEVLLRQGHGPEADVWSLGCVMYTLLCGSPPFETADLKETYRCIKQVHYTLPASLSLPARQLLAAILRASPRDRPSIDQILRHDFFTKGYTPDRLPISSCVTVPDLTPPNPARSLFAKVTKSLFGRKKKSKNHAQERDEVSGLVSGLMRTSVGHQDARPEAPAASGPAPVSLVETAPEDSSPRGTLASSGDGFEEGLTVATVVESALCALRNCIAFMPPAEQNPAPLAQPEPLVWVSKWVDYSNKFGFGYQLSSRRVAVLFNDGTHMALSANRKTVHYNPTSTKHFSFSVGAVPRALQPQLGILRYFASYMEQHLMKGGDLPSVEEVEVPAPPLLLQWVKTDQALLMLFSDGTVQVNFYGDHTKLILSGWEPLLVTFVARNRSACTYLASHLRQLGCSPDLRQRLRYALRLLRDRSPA
GAK (human), sequence (O14976 whole entry, looked up): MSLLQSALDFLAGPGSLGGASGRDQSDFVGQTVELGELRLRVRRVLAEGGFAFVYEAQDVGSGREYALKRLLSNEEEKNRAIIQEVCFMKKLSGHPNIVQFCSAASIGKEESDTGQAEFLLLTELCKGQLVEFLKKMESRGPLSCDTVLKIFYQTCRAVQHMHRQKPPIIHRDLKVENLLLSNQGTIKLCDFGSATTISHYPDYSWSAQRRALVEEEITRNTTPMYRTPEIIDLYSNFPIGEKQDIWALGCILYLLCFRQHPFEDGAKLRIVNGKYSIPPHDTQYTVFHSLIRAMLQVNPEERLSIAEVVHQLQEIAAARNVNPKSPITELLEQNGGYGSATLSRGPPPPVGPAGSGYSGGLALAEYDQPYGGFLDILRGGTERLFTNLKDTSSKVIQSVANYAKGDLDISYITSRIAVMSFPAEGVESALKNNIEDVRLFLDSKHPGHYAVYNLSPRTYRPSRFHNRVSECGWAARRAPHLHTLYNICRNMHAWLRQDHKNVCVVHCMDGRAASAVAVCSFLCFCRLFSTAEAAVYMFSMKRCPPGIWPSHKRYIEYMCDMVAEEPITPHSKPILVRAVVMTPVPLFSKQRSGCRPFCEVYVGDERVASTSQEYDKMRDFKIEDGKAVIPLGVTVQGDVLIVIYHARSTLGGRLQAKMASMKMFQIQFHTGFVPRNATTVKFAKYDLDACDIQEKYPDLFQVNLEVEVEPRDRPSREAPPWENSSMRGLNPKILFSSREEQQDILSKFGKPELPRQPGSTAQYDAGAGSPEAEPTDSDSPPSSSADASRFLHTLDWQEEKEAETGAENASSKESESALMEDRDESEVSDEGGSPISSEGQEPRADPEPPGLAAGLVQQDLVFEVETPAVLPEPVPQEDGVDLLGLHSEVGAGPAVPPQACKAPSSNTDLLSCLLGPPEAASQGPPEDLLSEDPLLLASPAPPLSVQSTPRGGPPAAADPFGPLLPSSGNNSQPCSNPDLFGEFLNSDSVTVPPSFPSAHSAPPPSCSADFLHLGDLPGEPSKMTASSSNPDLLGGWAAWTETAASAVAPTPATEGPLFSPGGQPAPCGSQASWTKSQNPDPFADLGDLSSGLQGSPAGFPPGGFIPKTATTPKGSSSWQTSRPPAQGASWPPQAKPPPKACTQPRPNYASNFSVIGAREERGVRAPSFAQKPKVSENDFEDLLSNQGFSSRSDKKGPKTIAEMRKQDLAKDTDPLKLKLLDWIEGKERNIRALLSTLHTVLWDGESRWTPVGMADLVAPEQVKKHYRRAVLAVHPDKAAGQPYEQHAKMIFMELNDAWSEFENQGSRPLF

## COc1cc(N2CCC(C)(O)CC2)ccc1Nc1ncc2c(n1)N(C1CCCC1)CCC(=O)N2C
TTK (human) [1]
  pIC50: 6.59
PLK1 (human)
  kinase still bound, per cent of control: 0.2%
[2]
  kinase still bound, per cent of control: 10%
[3]
  kinase still bound, per cent of control: 6.6%
STK33 (human)
  kinase still bound, per cent of control: 12%
[4]
  kinase still bound, per cent of control: 14%
TTK (human) [5]
  pKd: 7.69
  kinase still bound, per cent of control: 3.8%
MYLK (human)
  kinase still bound, per cent of control: 31%
PTK2B (human)
  kinase still bound, per cent of control: 3.1%
IGF1R (human)
  kinase still bound, per cent of control: 14%
TNK1 (human)
  kinase still bound, per cent of control: 11%
EGFR (human)
  kinase still bound, per cent of control: 17% and 29%
[6]
  kinase still bound, per cent of control: 17%
ULK2 (human)
  kinase still bound, per cent of control: 26%
DAPK2 (human)
  kinase still bound, per cent of control: 29%
[7]
  kinase still bound, per cent of control: 6.6%
SLK (human)
  kinase still bound, per cent of control: 31%
FGFR4 (human)
  kinase still bound, per cent of control: 34%
FER (human)
  kinase still bound, per cent of control: 18%
INSR (human)
  kinase still bound, per cent of control: 28%
PTK2 (human)
  kinase still bound, per cent of control: 6.2%
PLK3 (human)
  kinase still bound, per cent of control: 1.8%
[8]
  kinase still bound, per cent of control: 4%
ALK (human)
  kinase still bound, per cent of control: 22%
DAPK3 (human)
  kinase still bound, per cent of control: 34%
INSRR (human)
  kinase still bound, per cent of control: 30%
RPS6KA2 KD2 (human)
  kinase still bound, per cent of control: 30%
CAMKK2 (human)
  kinase still bound, per cent of control: 20%
GAK (human)
  kinase still bound, per cent of control: 1.2%
[9]
  kinase still bound, per cent of control: 6.2%
[10]
  kinase still bound, per cent of control: 10%
DCLK1 (human)
  kinase still bound, per cent of control: 20%
MET (human)
  kinase still bound, per cent of control: 9.1%
MKNK2 (human)
  kinase still bound, per cent of control: 13%
PLK4 (human)
  kinase still bound, per cent of control: 8.2%

## COc1cc(N2CCC(O)CC2)ccc1Nc1ncc2c(n1)N(c1ccccc1)CCC(=O)N2C
PLK1 (human)
  kinase still bound, per cent of control: 1.2%
[2]
  kinase still bound, per cent of control: 21%
[3]
  kinase still bound, per cent of control: 15%
[4]
  kinase still bound, per cent of control: 23%
TTK (human) [5]
  kinase still bound, per cent of control: 5%
PTK2B (human)
  kinase still bound, per cent of control: 22%
EGFR (human)
  kinase still bound, per cent of control: 24%
[6]
  kinase still bound, per cent of control: 30%
[7]
  kinase still bound, per cent of control: 25%
PTK2 (human)
  kinase still bound, per cent of control: 19%
PLK3 (human)
  kinase still bound, per cent of control: 21%
[8]
  kinase still bound, per cent of control: 21%
GAK (human)
  kinase still bound, per cent of control: 2%
[9]
  kinase still bound, per cent of control: 12%
[10]
  kinase still bound, per cent of control: 30%
